PubChem BioAssay (NCI)
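All cell lines were grown in 96-well plates and treated with compound for 48 hours. GI50: concentration for 50% inhibition of growth. Definition used: TGI = concentration required for complete inhibition of growth.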

Key:
Assay in all cases: NCI tumour cell line growth inhibition, 48 h
[1] = test system: UACC-62 melanoma
[2] = test system: SK-MEL-28 melanoma
[3] = test system: SK-MEL-2 melanoma
[4] = test system: MDA-MB-231 breast
[5] = test system: NCI-H460 lung
[6] = test system: NCI/ADR-RES ovarian
[7] = test system: K-562 leukemia
[8] = test system: TK-10 renal
[9] = test system: MOLT-4 leukemia
[10] = test system: HCT-15 colon
[11] = test system: EKVX NSCLC
[12] = test system: SF-268 CNS
[13] = test system: SNB-19 CNS
[14] = test system: SN12C renal
[15] = test system: IGROV1 ovarian
[16] = test system: HT29 colon
[17] = test system: BT-549 breast
[18] = test system: A549 NSCLC
[19] = test system: LOX IMVI melanoma
[20] = test system: SNB-75 CNS
[21] = test system: NCI-H23 lung
[22] = test system: ACHN renal
[23] = test system: HOP-62 NSCLC
[24] = test system: UACC-257 melanoma
[25] = test system: MDA-MB-435
[26] = test system: OVCAR-3 ovarian
[27] = test system: SF-295 CNS
[28] = test system: HL-60(TB) leukemia
[29] = test system: CAKI-1 renal
[30] = test system: NCI-H226 lung
[31] = test system: SK-MEL-5 melanoma
[32] = test system: SK-OV-3 ovarian
[33] = test system: COLO 205 colon
[34] = test system: HS 578T breast
[35] = test system: SW-620 colon
[36] = test system: OVCAR-4 ovarian
[37] = test system: OVCAR-5 ovarian
[38] = test system: OVCAR-8 ovarian
[39] = test system: A498 renal
[40] = test system: SR leukemia
[41] = test system: NCI-H522 lung
[42] = test system: SF-539 CNS
[43] = test system: DU-145 prostate
[44] = test system: MCF7 breast
[45] = test system: U251 CNS
[46] = test system: UO-31 renal
[47] = test system: 786-0 renal
[48] = test system: HCC-2998 colon
[49] = test system: HCT-116 colon
[50] = test system: MALME-3M melanoma
[51] = test system: KM12 colon
[52] = test system: M14 melanoma
[53] = test system: RXF 393 renal
[54] = test system: T-47D breast

CC#CC#Cc1cccc(=O)o1
GI50 [1]: 2980 nM | TGI [1]: 14.6 µM | GI50 [2]: 4.25 µM | TGI [2]: 16.7 µM | GI50 [3]: 3.73 µM | TGI [3]: 34.3 µM | GI50 [4]: 10.8 µM | TGI [4]: 24.7 µM | GI50 [5]: 13.5 µM | TGI [5]: 29 µM | GI50 [6]: 18.2 µM | TGI [6]: > 100 µM | GI50 [7]: 13.6 nM | TGI [7]: > 100 µM | GI50 [8]: 5.08 µM | TGI [8]: 18.3 µM | GI50 [9]: 1140 nM | TGI [9]: > 100 µM | GI50 [10]: 8.08 µM | TGI [10]: 30.2 µM | GI50 [11]: 3.14 µM | TGI [11]: 16.2 µM | GI50 [12]: 4.29 µM | TGI [12]: 18.1 µM | GI50 [13]: 16.9 µM | TGI [13]: 30.5 µM | GI50 [14]: 26.8 µM | TGI [14]: > 100 µM | GI50 [15]: 4.31 µM | TGI [15]: 19.8 µM | GI50 [16]: 4.17 µM | TGI [16]: 14.6 µM | GI50 [17]: 2370 nM | TGI [17]: 10.1 µM | GI50 [18]: 14.6 µM | TGI [18]: 31.5 µM | GI50 [19]: 10.7 µM | TGI [19]: 24.1 µM | GI50 [20]: 4.75 µM | TGI [20]: 21 µM | GI50 [21]: 5.97 µM | TGI [21]: 21.8 µM | GI50 [22]: 8.15 µM | TGI [22]: 20.6 µM | GI50 [23]: 13.8 µM | TGI [23]: 27 µM | GI50 [24]: 8.58 µM | TGI [24]: 23.3 µM | GI50 [25]: 3.82 µM | TGI [25]: 22.7 µM | GI50 [26]: 3.34 µM | TGI [26]: 10.2 µM | GI50 [27]: 12.8 µM | TGI [27]: 26.3 µM | GI50 [28]: 2910 nM | TGI [28]: 18.1 µM | GI50 [29]: 2100 nM | TGI [29]: 4.78 µM | GI50 [30]: 21 µM | TGI [30]: 96.1 µM | GI50 [31]: 11.3 µM | TGI [31]: 26.7 µM | GI50 [32]: 20.5 µM | TGI [32]: 56.4 µM | GI50 [33]: 3.85 µM | TGI [33]: 14.4 µM | GI50 [34]: 10.2 µM | TGI [34]: 81.4 µM | GI50 [35]: 10 µM | TGI [35]: 24.9 µM | GI50 [36]: 13 µM | TGI [36]: 25.6 µM | GI50 [37]: 24.2 µM | TGI [37]: 40 µM | GI50 [38]: 4.89 µM | TGI [38]: > 100 µM | GI50 [39]: 16.5 µM | TGI [39]: 30 µM | GI50 [40]: 1380 nM | TGI [40]: 7.2 µM | GI50 [41]: 3.67 µM | TGI [41]: 16.3 µM | GI50 [42]: 5.63 µM | TGI [42]: 26.6 µM | GI50 [43]: 15.7 µM | TGI [43]: 29.2 µM | GI50 [44]: 3.4 µM | TGI [44]: 18.4 µM | GI50 [45]: 11.2 µM | TGI [45]: 24.9 µM | GI50 [46]: 10.2 µM | TGI [46]: 22.6 µM | GI50 [47]: 13.6 µM | TGI [47]: 28.9 µM | GI50 [48]: 16 µM | TGI [48]: 29.5 µM | GI50 [49]: 2100 nM | TGI [49]: 5.79 µM | GI50 [50]: 2800 nM | TGI [50]: 14.1 µM | GI50 [51]: 4.87 µM | TGI [51]: 17 µM | GI50 [52]: 9.52 µM | TGI [52]: 24.3 µM | GI50 [53]: 2480 nM | TGI [53]: 6.63 µM | GI50 [54]: 4.35 µM | TGI [54]: 18.7 µM
